The test system of test [1] is Ova-specific target cells. In words: in vivo cytotoxic specific cell lysis assay (CD8+ T cell response) in immunized mice. Set-up: species or system mouse.
For the next test, the system named is IFNγ. In words: in vivo IFNγ release in sera by ELISA 24 hours after inoculation. Also noted: species or system C57BL/6 mice. As to conditions: Quantikine kit, FIG. 4. The method, then:
To test the ability of the adjuvant test compounds to stimulate in vivo cytokine release, C57BL/6 mice were administered the compounds at different concentrations intravenously and the production of IFNγ in sera was measured 24 hours later by ELISA. Groups of 3 mice were inoculated intravenously (tail vein) on day 0 as follows: • Group 1: 100 μl of PBS alone • Group 2: 1 μg of αGalCer in 100 μl of PBS • Group 3: 100 ng of αGalCer in 100 μl of PBS • Group 4: 1 ng of αGalCer in 100 μl of PBS • Group 5: 0.1 ng of αGalCer in 100 μl of PBS • Group 6: 100 ng of αGalCer and 100 μg of Ova in 100 μl of PBS • Group 7: 1 μg of PBS-57 in 100 μl of PBS • Group 8: 100 ng of PBS-57 in 100 μl of PBS • Group 9: 1 ng of PBS-57 in 100 μl of PBS • Group 10: 0.1 ng of PBS-57 in 100 μl of PBS • Group 11: 100 ng of PBS-57 and 400 μg of Ova into 100 μl of PBS • Group 12: 1 μg of PBS-14 in 100 μl of PBS • Group 13: 100 ng of PBS-14 in 100 μl of PBS • Group 14: 1 ng of PBS-14 in 100 μl of PBS • Group 15: 0.1 ng of PBS-14 in 100 μl of PBS • Group 16: 100 ng of PBS-14 and 400 μg of Ova in 100 μl of PBS • Group 17: 1 μg of PBS-96 in 100 μl of PBS • Group 18: 100 ng of PBS-96 in 100 μl of PBS • Group 19: 1 ng of PBS-96 in 100 μl of PBS • Group 20: 0.1 ng of PBS-96 in 100 μl of PBS • Group 21: 100 ng of PBS-96 and 400 μg of Ova in 100 μl of PBS. 24 hours after inoculation, blood samples were collected from the mice and IFNγ levels were detected by ELISA kit. Two ELISA kits were used, Quantikine mouse IFNγ (RD systems) was used to test all samples and ELISA mIFNγ (Diaclone) was used to test group 1, 2, 3, 6, 7, 8, 11, 12, 13, 16, 17, 18 and 21. All sera were diluted before use in ELISA as follows:
Results are expressed as IFNγ concentration (pg/ml) in sera and take into account the dilution factor. FIG. 4 depicts results using the Quantikine mouse IFNγ kit by RD systems. FIG. 4A depicts results of IFNγ levels for mice immunized with PBS-57, FIG. 4B depicts results of IFNγ levels for mice immunized with PBS-14, FIG. 4C depicts results of IFNγ levels for mice immunized with PBS-96 and FIG. 4D depicts results of IFNγ levels for mice immunized with αGalCer. At 0.1 ng, all adjuvant candidates induce cytokine release, but mice immunized with αGalCer produced three- or four-fold less IFNγ than mice immunized with PBS-57, PBS-14 or PBS-96 (1540.57±397.53 pg/ml, 4398.05±880.86 pg/ml, 6669.31±1231.82 pg/ml, 5823.33±720.69 pg/ml respectively).
Another set of mice were used to compare the ability of adjuvant compounds to stimulate in vivo cytokine release by the method described above. Five groups of C57BL/6 mice were administered 100 ng of PBS-57, PBS-14, PBS-96, or PBS-11 in 100 μl PBS or 100 μl PBS alone intravenously. The production of IFNγ in sera was measured 24 hours later by ELISA. FIG. 5 depicts results for mice immunized with 100 ng of PBS-11, PBS-96, PBS-14 and PBS-57.
On the technique in general: ELISA stands for enzyme-linked immunosorbent assay.

The test system of test [2] is CD8+ T cells responsive to OVA. In words: SIINFEKL pentamer assay of OVA-specific CD8+ T cells (FACS). It is filed as in vivo, mouse. As to conditions: IM, days 0 and 14, blood day 21. The method, then:
To verify the results obtained using the in vivo cytotoxicity assay described in the Examples above, similar experiments were performed and CD8+ T cell activation was determined by measuring the percentage of OVA-specific CD8+ T cells using a pentamer assay. Briefly, mice were injected intramuscularly with the indicated amounts of OVA and test adjuvant compound at either 1 μg or 100 ng per mouse, respectively on day 0 as follows:
Experiment A: • Group 1: 100 μl of PBS; • Group 2: 50 μg of Ova into 100 μl PBS; • Group 3: 50 μg of Ova with 1 μg αGalCer; • Group 4: 50 μg of Ova with 1 μg PBS-11 • Group 5: 50 μg of Ova with 1 μg PBS-14 • Group 6: 50 μg of Ova with 1 μg PBS-57 • Group 7: 50 μg of Ova with 1 μg PBS-96
Experiment B: • Group 1: 100 μl of PBS; • Group 2: 50 μg of Ova into 100 μl PBS; • Group 3: 50 μg of Ova with 100 ng αGalCer; • Group 4: 50 μg of Ova with 100 ng PBS-11 • Group 5: 50 μg of Ova with 100 ng PBS-14 • Group 6: 50 μg of Ova with 100 ng PBS-57 • Group 7: 50 μg of Ova with 100 ng PBS-96 A second injection was administered to the mice on day 14 and blood was collected from the mice on day 21. The lymphocytes were collected and analyzed by FACS analysis using H-2 K^b SIINFEKL pentamer and CD8 antibody to detect CD8+ T cells responsive to OVA.

Another test relates to OVA-specific IgG1. In words: OVA-specific IgG1 ELISA after intramuscular immunization. It is filed as in vivo, mouse. As to conditions: FIG. 11; IM, 50 μg OVA with 100 ng adjuvant, 14 days post-injection. How it is done: (§1) Mice (6 per group) were injected intramuscularly with 50 μg of OVA either alone or in combination with 100 ng of the indicated adjuvants (Freund's adjuvant was used as a positive control) as follows: • Group 1: […] of Ova with CFA/IFA (Positive control) • Group 2: 50 μg of Ova • Group 3: 50 μg of Ova and 100 ng of αGalCer • Group 4: 50 μg of Ova and 100 ng of PBS-11 • Group 5: 50 μg of Ova and 100 ng of PBS-14 • Group 6: 50 μg of Ova and 100 ng of PBS-57 • Group 7: 50 μg of Ova and 100 ng of PBS-96 At 14 days post-injection, blood samples were collected and ELISAs for IgG1 and IgG2a were performed using mouse monoclonal antibodies specific for OVA isotype IgG1 or IgG2a. The results are shown as the titer of the antibody in peripheral blood in ng/ml. The results for IgG1 are depicted in FIG. 11 and those for IgG2a are depicted in FIG. 12.

A further test relates to OVA specific IgG2a. Kind of test: OVA-specific IgG2a ELISA after intramuscular immunization. In kind it is in vivo, mouse. Conditions: FIG. 12; IM, 50 μg OVA with 100 ng adjuvant, 14 days post-injection. The method, then: as §1

Consider `CCCCCCCCCCCCCCCCCCCCCCCCCC(=O)N[C@@H](CO[C@H]1O[C@H](CNC(C)=O)[C@H](O)[C@H](O)[C@H]1O)[C@H](O)[C@H](O)CCCCCCCCCCCCCC` [PBS-14], for which the “specific lysis of Ova-specific target cells in blood” value in test [1] (Example 1, FIG. 1, IV, 1 μg adjuvant with 50 μg Ova, day 11) is “resulted in cytotoxic lysis of Ova-specific target cells”. Further, the “average Ova-specific cytotoxic response” value in test [1] (Example 2, FIG. 2, IV, 400 μg Ova with or without 1 μg adjuvant, day 11 blood) was 83.3±6.1%. Also, in test [1] (Example 2, FIG. 3, IM, 400 μg Ova with or without 1 μg adjuvant, day 11 blood), the “average OVA-specific cytotoxic response” value is 52.07±29.56%. In addition, the “average Ova-specific cell lysis” value in test [1] (Example 4, FIG. 6, IV, 400 μg Ova with or without 1 μg adjuvant (PBS-57 new formulation), day 11 blood) was found to be 83.3±6.1%. The “enhancement of the CD8+ T cell response (specific lysis) at low doses” value in test [1] (Example 5 Experiments A and B, FIGS. 7 and 8, 50 μg OVA with 100 ng or 10 ng adjuvant intramuscularly) is given as “unexpectedly better than other adjuvants”. Further, the “IFNγ concentration in sera” value in the test with IFNγ (0.1 ng IV) is 6669.31 ± 1231.82 pg/mL; in the test on IFNγ (1 ng IV) it was 7481.15 ± 3454.03 pg/mL; with IFNγ (100 ng IV), 19582.18 ± 3421.20 pg/mL; in the test with IFNγ (1 μg IV), 16392.53 ± 5957.70 pg/mL. The “percentage of OVA specific CD8+ T cells” value in test [2] (Example 6 Experiment A, FIG. 9, 50 μg Ova with 1 μg adjuvant) is recorded as “enhanced the percentage of OVA specific CD8+ T cells”; in test [2] (Example 6 Experiment B, FIG. 10, 50 μg Ova with 100 ng adjuvant) it was “surprisingly much better at enhancing the CD8+ T cell response”. In the test on OVA-specific IgG1, the “OVA-specific IgG1 titer in peripheral blood” value is listed as “able to elicit a robust IgG1 titer”. In the test on OVA specific IgG2a, the “OVA specific IgG2a titer in peripheral blood” value is reported as “about as well as Freund's adjuvant”.

These data come from US8207135B2, “Compositions for and methods of enhancing the immune response to antigens” (Wittycell, priority 2007, dated 2012).
